The record followed here is patent US4572907A, “High caloric product for I.V. administration” (Abbott Laboratories, priority 1984, dated 1986).

Structures are written as SMILES.

The nature of data set [1]: Stability of the compound, solid or in water (NMR and TLC analysis). Type of data set: physicochemical.
Data set [2] is described as follows: Toxicity (LD50) when tested in mice. The following applies: mouse, in vivo. From the text:
Another advantage of the compounds of this invention are their low toxicity.

For the compound `CCCCC(C(=O)OC1O[C@H](CO)[C@@H](O)[C@H](O)[C@H]1O)C(=O)OC1O[C@H](CO)[C@@H](O)[C@H](O)[C@H]1O` (stereo partly drawn) [Example 2, Di-(1,1'-D-glucopyranosyl)n-butylmalonates], the “degradation at 0° after one month” value in data set [1] (0°, one month, NMR and TLC analysis) was “no noticeable degradation”. Besides, the “stability at 0°” value in data set [1] (0°, substantially long periods of time) is “stable at 0° for substantially long periods of time”. Further, the “hydrolysis in water after one month” value in data set [1] (15 mg/mL in water, room temperature, one month) is “Partial hydrolysis into D-glucose”. Further, the stability in water result in data set [1] (15 mg/mL in water, room temperature, one week, TLC analysis) is recorded as “stable in water”. In data set [1] (aqueous solution, 60°), the acyl-migration products result is “No acyl-migration products were detected”; the “relative hydrolysis of β- and α-anomers” value is on record as “hydrolysis of the β-anomers appeared faster than that of the α-anomers”. Also, the “α-anomers remaining after 36 hours” value in data set [1] (aqueous solution, 60°, 36 hours, α-anomers) is recorded as “some α-anomers were still present”. For the same compound, the “β-anomers remaining after 36 hours” value in data set [1] (aqueous solution, 60°, 36 hours, β-anomers) is “completely disappeared”. Also, in data set [1] (aqueous solution, 60°, formation of D-glucose, NMR and TLC analysis), the “hydrolysis of aqueous solution at 60°” value was “some hydrolysis after about two hours”. Besides, the “time after which slow degradation of the solid was noted” value in data set [1] (solid compound, 60°, D-glucose and unidentified decomposition products (TLC)) is 3 h.

Regarding `CCC(C(=O)OC1O[C@H](CO)[C@@H](O)[C@H](O)[C@H]1O)C(=O)OC1O[C@H](CO)[C@@H](O)[C@H](O)[C@H]1O` (stereo partly drawn) [Example 4, Di-(1,1'-D-glucopyranosyl)ethylmalonates], in data set [2], the LD50 stood at 9700 mg/kg.
